Experiment in all cases: inhibition of tumour cell growth, NCI panel, 48 h
For experiment [1], the system named is HL-60.
Experiment [2] concerns SW-620.
The subject of experiment [3] is U-251.
For experiment [4], the system named is SK-MEL-28.
Experiment [5] deals with NCI-H460.
Experiment [6] concerns SK-OV-3.
Experiment [7] concerns SK-MEL-5.
Experiment [8] has as its system RXF 393.
The subject of experiment [9] is SNB-75.
Experiment [10] relates to UO-31.
Experiment [11] relates to A549.
For experiment [12], the system named is ACHN.
Experiment [13] relates to OVCAR-8.

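All cell lines were grown in 96-well plates and treated with compound for 48 hours. At the GI50, growth is halved.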 Calls of active or inactive are those of the source. Cut-off read from the data, not from the text of the source: active = GI50 up to about 1.1 µM and inactive = higher.

This note sets out measurements from ChEMBL document CHEMBL1201862, “PubChem BioAssay data set” (2004).

With `Cc1cc(NCCCCCCNc2cc(C)nc3cc(N(C)C)ccc23)c2ccc(N(C)C)cc2n1`, the GI50 is 3.19 µM (inactive) in experiment [1]; 28.6 µM (inactive) in experiment [2]; 28.2 µM (inactive) in experiment [3]; 29.2 µM (inactive) in experiment [4]; 13.3 µM (inactive) in [5]; 12.3 µM (inactive) in experiment [6]. Moreover, the GI50 is 18.2 µM (inactive) in [7]; > 100 µM (inactive) in experiment [8]; 10 µM (inactive) in [9]; 88.7 µM (inactive) in experiment [10]; > 10 µM (inactive) in [11]; 99.8 µM (inactive) in experiment [12]. The GI50 in experiment [13] is 31 µM (inactive).
As for `CC(=O)Nc1ccc(C(=O)NN2C(=O)C(Cl)C2c2ccccc2)cc1` (configuration not stated), the GI50 in [1], in experiment [2], in experiment [3], in [4], in experiment [5] and in [6] was > 100 µM (inactive) in each case. Further, the GI50 in [7], in experiment [8], in experiment [9], in [10], in experiment [11] and in [12] was > 100 µM (inactive) throughout. Further, the GI50 in experiment [13] was > 100 µM (inactive).
As to `CSC(C1c2ccccc2N(c2ccc(C)cc2)c2[nH]c(=O)n(C)c(=O)c21)S(=O)(=O)c1ccc(C)cc1` (configuration not stated), the GI50 was 43.5 µM (inactive) in experiment [1]; > 100 µM (inactive) in [2]; > 100 µM (inactive) in experiment [3]; > 100 µM (inactive) in experiment [4]; > 100 µM (inactive) in experiment [5]; > 100 µM (inactive) in experiment [6]. The GI50 in experiment [7], in experiment [9], in [10], in experiment [11] and in experiment [13] was > 100 µM (inactive) throughout.
For the molecule `C[C@@]12[Se]c3ccccc3[C@]1(C)[Se]c1ccccc12`, the GI50 in experiment [1] is 2.74 µM (inactive); in [2], 3.27 µM (inactive); in [3] it was 54.6 µM (inactive); in experiment [7], 4.21 µM (inactive); in experiment [8], 2.75 µM (inactive); in experiment [9] it was 2.57 µM (inactive). In addition, the GI50 in experiment [12] and in experiment [13] was > 100 µM (inactive) in each case.
For the molecule `O=C(/C=C/c1ccccc1)CC(=O)CCC(=O)Nc1ccc(Cl)cc1`, the GI50 is > 100 µM (inactive) in [1]; > 100 µM (inactive) in experiment [2]; > 100 µM (inactive) in experiment [3]; 55.6 µM (inactive) in experiment [5]; > 100 µM (inactive) in experiment [6]; > 100 µM (inactive) in experiment [7]. For the same molecule, the GI50 in experiment [10] was 94 µM (inactive); in [11], > 100 µM (inactive); in experiment [12] it was 23.6 µM (inactive); in experiment [13] it was > 100 µM (inactive).
On to `Oc1c(C(Nc2cccc3cccnc23)c2ccccc2)ccc2cccnc12` (configuration not stated), for which the GI50 is 2.2 µM (inactive) in experiment [1]; 4.05 µM (inactive) in [2]; 3.33 µM (inactive) in experiment [5]; 4.11 µM (inactive) in experiment [10]; 6.04 µM (inactive) in [11]; 3.91 µM (inactive) in experiment [12]. Further, the GI50 in experiment [13] was 3.72 µM (inactive).
Regarding `COc1ccc(CNc2nc3ccc(C(F)(F)F)cc3nc2-c2ccccc2)cc1OC`, the GI50 in experiment [1] was 6.98 µM (inactive); in experiment [2], > 100 µM (inactive); in [3], > 100 µM (inactive); in [4], > 100 µM (inactive); in experiment [5], 21.2 µM (inactive); in experiment [6], > 100 µM (inactive). Besides, the GI50 in experiment [8] was 8.89 µM (inactive); in experiment [9] it was 11 µM (inactive); in experiment [10], 47.6 µM (inactive); in experiment [11], 31.3 µM (inactive); in [12] it was 27.7 µM (inactive); in experiment [13] it was > 100 µM (inactive).
With `COc1ccc2c(c1)Cc1c-2[nH]c2cc3c(cc2c1=O)OCO3`, the GI50 is 6.12 µM (inactive) in experiment [1]; 27.5 µM (inactive) in [2]; 9.89 µM (inactive) in [3]; 15.8 µM (inactive) in experiment [4]; 10.3 µM (inactive) in [5]; 22.3 µM (inactive) in experiment [6]. The GI50 in experiment [7] is 6.21 µM (inactive); in experiment [8], 4.01 µM (inactive); in experiment [10] it was 15.8 µM (inactive); in [11] it was 7.31 µM (inactive); in experiment [12], 7.94 µM (inactive); in experiment [13], 19.1 µM (inactive).
With `COC(=O)c1cc2ccccc2c2nc3ccccc3c(Cl)c12`, the GI50 in [1], in [2], in experiment [3], in experiment [4], in experiment [7] and in experiment [8] was > 100 µM (inactive) in each case. In addition, the GI50 in experiment [9] was 98.4 µM (inactive); in experiment [11], > 100 µM (inactive); in experiment [12] it was > 100 µM (inactive); in experiment [13], > 100 µM (inactive).
In the case of `CN1CCN(c2nc(N)c(Br)c(Cl)n2)CC1`, the GI50 in experiment [1], in experiment [2], in experiment [4], in experiment [5], in experiment [6] and in experiment [7] was > 100 µM (inactive) throughout. The GI50 in experiment [8] is > 100 µM (inactive); in experiment [9], 58.3 µM (inactive); in experiment [10], > 100 µM (inactive); in experiment [11], > 100 µM (inactive); in experiment [12], > 100 µM (inactive); in experiment [13], > 100 µM (inactive).
For `CN(C)CCNC(=O)c1cccc2c(Nc3ccc(S(N)(=O)=O)cc3)c3ccccc3nc12`, the GI50 in [1] was 0.228 µM (active); in experiment [2] it was 0.367 µM (active); in [3], 1.02 µM (active); in experiment [4], 1.57 µM (inactive); in [5], 0.337 µM (active); in experiment [6] it was 0.376 µM (active). The GI50 is 1.67 µM (inactive) in experiment [7]; 1.26 µM (inactive) in experiment [9]; 1.87 µM (inactive) in experiment [10]; 1.79 µM (inactive) in [11]; 1.47 µM (inactive) in experiment [12]; 0.435 µM (active) in experiment [13].
Consider `COC(=O)C1=C(C(=O)OC)C23CC1C1C(C(=O)OC)=C(C(=O)OC)C12C1C=CC3C2C(=O)OC(=O)C21` (configuration not stated), for which the GI50 in experiment [1] was 40.1 µM (inactive); in [2] it was 37.5 µM (inactive); in experiment [3], 48.2 µM (inactive); in experiment [4], 65.5 µM (inactive); in [5], 34.7 µM (inactive); in [7], 41.8 µM (inactive). Further, the GI50 in experiment [8] was 38.9 µM (inactive); in experiment [9], 7.1 µM (inactive); in experiment [10] it was 84.9 µM (inactive); in experiment [11], 49 µM (inactive); in [12], 53.5 µM (inactive); in [13] it was 48.3 µM (inactive).
